Data taken from ChEMBL document CHEMBL4308841, “Synthesis, in vitro antiproliferative activity, and kinase inhibitory effects of pyrazole-containing diarylureas and diarylamides” (Eur J Med Chem, 2018).

Columns and labels:
SK-OV-3 [1] = assay: Growth inhibition of human SKOV3 cells assessed as cell growth at 0.1 uM incubated for 48 hrs by sulforhodamine B assay relative to control; assay type: functional; conditions: SK-OV-3, 48 h, read-out: Activity
BT-549 = assay: Growth inhibition of human BT549 cells assessed as cell growth at 0.01 uM incubated for 48 hrs by sulforhodamine B assay relative to control; assay type: functional; conditions: BT-549, 48 h, read-out: Activity
RXF 393 = assay: Growth inhibition of human RXF393 cells assessed as cell growth at 0.01 uM incubated for 48 hrs by sulforhodamine B assay relative to control; assay type: functional; conditions: RXF 393, 48 h, read-out: Activity
HCT-15 = assay: Growth inhibition of human HCT15 cells assessed as cell growth at 0.1 uM incubated for 48 hrs by sulforhodamine B assay relative to control; assay type: functional; conditions: HCT-15, 48 h, read-out: Activity
OVCAR-4 = assay: Growth inhibition of human OVCAR4 cells assessed as cell growth at 0.1 uM incubated for 48 hrs by sulforhodamine B assay relative to control; assay type: functional; conditions: OVCAR-4, 48 h, read-out: Activity
KM12 [2] = assay: Growth inhibition of human KM12 cells assessed as cell growth at 100 uM incubated for 48 hrs by sulforhodamine B assay relative to control; assay type: functional; conditions: KM12, 48 h, read-out: Activity
T47D = assay: Growth inhibition of human T47D cells assessed as cell growth at 0.1 uM incubated for 48 hrs by sulforhodamine B assay relative to control; assay type: functional; conditions: read-out: Activity
SF-295 = assay: Growth inhibition of human SF295 cells assessed as cell growth at 1 uM incubated for 48 hrs by sulforhodamine B assay relative to control; assay type: functional; conditions: SF-295, 48 h, read-out: Activity
786-0 [3] = assay: Growth inhibition of human 786-0 cells assessed as cell growth at 0.1 uM incubated for 48 hrs by sulforhodamine B assay relative to control; assay type: functional; conditions: 786-0, 48 h, read-out: Activity
NCI/ADR-RES [4] = assay: Growth inhibition of human NCI/ADR-RES cells assessed as cell growth at 0.01 uM incubated for 48 hrs by sulforhodamine B assay relative to control; assay type: functional; conditions: read-out: Activity
SF-268 = assay: Growth inhibition of human SF268 cells incubated for 48 hrs by sulforhodamine B assay; assay type: functional, cell-based; conditions: SF-268, 48 h
SK-MEL-28 [5] = assay: Growth inhibition of human SK-MEL-28 cells incubated for 48 hrs by sulforhodamine B assay; assay type: functional, cell-based; conditions: SK-MEL-28, 48 h
SK-MEL-5 = assay: Growth inhibition of human SK-MEL-5 cells assessed as cell growth at 100 uM incubated for 48 hrs by sulforhodamine B assay relative to control; assay type: functional; conditions: SK-MEL-5, 48 h, read-out: Activity
NCI/ADR-RES [6] = assay: Growth inhibition of human NCI/ADR-RES cells assessed as cell growth at 100 uM incubated for 48 hrs by sulforhodamine B assay relative to control; assay type: functional; conditions: read-out: Activity
CAKI-1 = assay: Growth inhibition of human Caki1 cells incubated for 48 hrs by sulforhodamine B assay; assay type: functional, cell-based; conditions: CAKI-1, 48 h
U-251 [7] = assay: Growth inhibition of human U251 cells assessed as cell growth at 1 uM incubated for 48 hrs by sulforhodamine B assay relative to control; assay type: functional; conditions: U-251, 48 h, read-out: Activity
SK-OV-3 [8] = assay: Growth inhibition of human SKOV3 cells assessed as cell growth at 100 uM incubated for 48 hrs by sulforhodamine B assay relative to control; assay type: functional; conditions: SK-OV-3, 48 h, read-out: Activity
IGROV-1 [9] = assay: Growth inhibition of human IGROV1 cells assessed as cell growth at 0.01 uM incubated for 48 hrs by sulforhodamine B assay relative to control; assay type: functional; conditions: IGROV-1, 48 h, read-out: Activity
IGROV-1 [10] = assay: Growth inhibition of human IGROV1 cells assessed as cell growth at 0.1 uM incubated for 48 hrs by sulforhodamine B assay relative to control; assay type: functional; conditions: IGROV-1, 48 h, read-out: Activity
786-0 [11] = assay: Growth inhibition of human 786-0 cells assessed as cell growth at 0.01 uM incubated for 48 hrs by sulforhodamine B assay relative to control; assay type: functional; conditions: 786-0, 48 h, read-out: Activity
U-251 [12] = assay: Growth inhibition of human U251 cells assessed as cell growth at 100 uM incubated for 48 hrs by sulforhodamine B assay relative to control; assay type: functional; conditions: U-251, 48 h, read-out: Activity
K562 = assay: Growth inhibition of human K562 cells assessed as cell growth at 100 uM incubated for 48 hrs by sulforhodamine B assay relative to control; assay type: functional; conditions: K562, 48 h, read-out: Activity
UACC-257 = assay: Growth inhibition of human UACC257 cells assessed as cell growth at 1 uM incubated for 48 hrs by sulforhodamine B assay relative to control; assay type: functional; conditions: UACC-257, 48 h, read-out: Activity
SK-MEL-28 [13] = assay: Growth inhibition of human SK-MEL-28 cells assessed as cell growth at 1 uM incubated for 48 hrs by sulforhodamine B assay relative to control; assay type: functional; conditions: SK-MEL-28, 48 h, read-out: Activity
SNB-75 = assay: Growth inhibition of human SNB75 cells assessed as cell growth at 1 uM incubated for 48 hrs by sulforhodamine B assay relative to control; assay type: functional; conditions: SNB-75, 48 h, read-out: Activity
NCI-H522 [14] = assay: Growth inhibition of human NCI-H522 cells assessed as cell growth at 10 uM incubated for 48 hrs by sulforhodamine B assay relative to control; assay type: functional; conditions: NCI-H522, 48 h, read-out: Activity
SK-MEL-2 = assay: Growth inhibition of human SK-MEL-2 cells assessed as cell growth at 10 uM incubated for 48 hrs by sulforhodamine B assay relative to control; assay type: functional; conditions: SK-MEL-2, 48 h, read-out: Activity
M14 = assay: Growth inhibition of human M14 cells assessed as cell growth at 0.01 uM incubated for 48 hrs by sulforhodamine B assay relative to control; assay type: functional; conditions: M14, 48 h, read-out: Activity
HT-29 = assay: Growth inhibition of human HT-29 cells assessed as cell growth at 10 uM incubated for 48 hrs by sulforhodamine B assay relative to control; assay type: functional; conditions: HT-29, 48 h, read-out: Activity
NCI-H522 [15] = assay: Growth inhibition of human NCI-H522 cells assessed as cell growth at 1 uM incubated for 48 hrs by sulforhodamine B assay relative to control; assay type: functional; conditions: NCI-H522, 48 h, read-out: Activity
IGROV-1 [16] = assay: Growth inhibition of human IGROV1 cells assessed as cell growth at 1 uM incubated for 48 hrs by sulforhodamine B assay relative to control; assay type: functional; conditions: IGROV-1, 48 h, read-out: Activity
KM12 [17] = assay: Growth inhibition of human KM12 cells incubated for 48 hrs by sulforhodamine B assay; assay type: functional, cell-based; conditions: KM12, 48 h
[18] = read-out: LC50 (the source's name)
[19] = read-out: pLC50 (the source's name) (converted)

SMILES: COc1cc(Cl)cc(-c2nn(-c3cccc(NC(=O)c4ccc(N5CCOCC5)c(C(F)(F)F)c4)c3)cc2-c2ccncc2)c1
- growth at 0.1 µM (SK-OV-3 [1]): 102%
- growth at 0.01 µM (BT-549): 104%
- growth at 0.01 µM (RXF 393): 97%
- growth at 0.1 µM (HCT-15): 85%
- growth at 0.1 µM (OVCAR-4): 103%
- growth at 100 µM (KM12 [2]): 20%
- growth at 0.1 µM (T47D): 95%
- growth at 1 µM (SF-295): 73%
- growth at 0.1 µM (786-0 [3]): 95%
- growth at 0.01 µM (NCI/ADR-RES [4]): 96%
- GI50 (SF-268; read-out: GI50): > 100 µM
- CC50 (SF-268; [18]): > 100 µM
- TGI (SF-268; read-out: TGI): > 100 µM
- GI50 (SF-268; read-out: pGI50 (converted)): > 100 µM
- CC50 (SF-268; [19]): > 100 µM
- TGI (SF-268; read-out: pTGI (converted)): > 100 µM
- GI50 (SK-MEL-28 [5]; read-out: GI50): 1.48 µM
- CC50 (SK-MEL-28 [5]; [18]): > 100 µM
- TGI (SK-MEL-28 [5]; read-out: TGI): > 100 µM
- GI50 (SK-MEL-28 [5]; read-out: pGI50 (converted)): 14.8 µM
- CC50 (SK-MEL-28 [5]; [19]): > 100 µM
- TGI (SK-MEL-28 [5]; read-out: pTGI (converted)): > 100 µM
- growth at 100 µM (SK-MEL-5): 21%
- growth at 100 µM (NCI/ADR-RES [6]): 30%
- GI50 (CAKI-1; read-out: GI50): 4.4 µM
- CC50 (CAKI-1; [18]): > 100 µM
- TGI (CAKI-1; read-out: TGI): > 100 µM
- GI50 (CAKI-1; read-out: pGI50 (converted)): 4.37 µM
- CC50 (CAKI-1; [19]): > 100 µM
- TGI (CAKI-1; read-out: pTGI (converted)): > 100 µM
- growth at 1 µM (U-251 [7]): 78%
- growth at 100 µM (SK-OV-3 [8]): 70%
- growth at 0.01 µM (IGROV-1 [9]): 103%
- growth at 0.1 µM (IGROV-1 [10]): 100%
- growth at 0.01 µM (786-0 [11]): 96%
- growth at 100 µM (U-251 [12]): 3%
- growth at 100 µM (K562): 2%
- growth at 1 µM (UACC-257): 98%
- growth at 1 µM (SK-MEL-28 [13]): 53%
- growth at 1 µM (SNB-75): 51%
- growth at 10 µM (NCI-H522 [14]): 52.7%
- growth at 10 µM (SK-MEL-2): 64.9%
- growth at 0.01 µM (M14): 97%
- growth at 10 µM (HT-29): 21.2%
- growth at 1 µM (NCI-H522 [15]): 77%
- growth at 1 µM (IGROV-1 [16]): 104%
- GI50 (KM12 [17]; read-out: GI50): 5.38 µM
- CC50 (KM12 [17]; [18]): > 100 µM
- TGI (KM12 [17]; read-out: TGI): > 100 µM
- GI50 (KM12 [17]; read-out: pGI50 (converted)): 5.37 µM
- CC50 (KM12 [17]; [19]): > 100 µM
- TGI (KM12 [17]; read-out: pTGI (converted)): > 100 µM

SMILES: COc1cc(Cl)cc(-c2nn(-c3cccc(NC(=O)Nc4cccc(C(F)(F)F)c4)c3)cc2-c2ccncc2)c1
- growth at 0.1 µM (SK-OV-3 [1]): 98%
- growth at 0.01 µM (BT-549): 107%
- growth at 0.01 µM (RXF 393): 93%
- growth at 0.1 µM (HCT-15): 83%
- growth at 0.1 µM (OVCAR-4): 98%
- growth at 100 µM (KM12 [2]): -48%
- growth at 0.1 µM (T47D): 94%
- growth at 1 µM (SF-295): 45%
- growth at 0.1 µM (786-0 [3]): 99%
- growth at 0.01 µM (NCI/ADR-RES [4]): 100%
- GI50 (SF-268; read-out: GI50): 2.56 µM
- CC50 (SF-268; [18]): > 100 µM
- TGI (SF-268; read-out: TGI): 17.1 µM
- GI50 (SF-268; read-out: pGI50 (converted)): 2.57 µM
- CC50 (SF-268; [19]): > 100 µM
- TGI (SF-268; read-out: pTGI (converted)): 17 µM
- GI50 (SK-MEL-28 [5]; read-out: GI50): 2.53 µM
- CC50 (SK-MEL-28 [5]; [18]): > 100 µM
- TGI (SK-MEL-28 [5]; read-out: TGI): 12.1 µM
- GI50 (SK-MEL-28 [5]; read-out: pGI50 (converted)): 2.51 µM
- CC50 (SK-MEL-28 [5]; [19]): > 100 µM
- TGI (SK-MEL-28 [5]; read-out: pTGI (converted)): 12 µM
- growth at 100 µM (SK-MEL-5): -99%
- growth at 100 µM (NCI/ADR-RES [6]): -22%
- GI50 (CAKI-1; read-out: GI50): 1.29 µM
- CC50 (CAKI-1; [18]): > 100 µM
- TGI (CAKI-1; read-out: TGI): 52 µM
- GI50 (CAKI-1; read-out: pGI50 (converted)): 1.29 µM
- CC50 (CAKI-1; [19]): > 100 µM
- TGI (CAKI-1; read-out: pTGI (converted)): 8.91 µM
- growth at 1 µM (U-251 [7]): 47%
- growth at 100 µM (SK-OV-3 [8]): -3%
- growth at 0.01 µM (IGROV-1 [9]): 106%
- growth at 0.1 µM (IGROV-1 [10]): 96%
- growth at 0.01 µM (786-0 [11]): 99%
- growth at 100 µM (U-251 [12]): -100%
- growth at 100 µM (K562): -22%
- growth at 1 µM (UACC-257): 78%
- growth at 1 µM (SK-MEL-28 [13]): 82%
- growth at 1 µM (SNB-75): 68%
- growth at 10 µM (NCI-H522 [14]): -18.6%
- growth at 10 µM (SK-MEL-2): -36.7%
- growth at 0.01 µM (M14): 98%
- growth at 10 µM (HT-29): 5.75%
- growth at 1 µM (NCI-H522 [15]): 33%
- growth at 1 µM (IGROV-1 [16]): 85%
- GI50 (KM12 [17]; read-out: GI50): 0.611 µM
- CC50 (KM12 [17]; [18]): > 100 µM
- TGI (KM12 [17]; read-out: TGI): 47 µM
- GI50 (KM12 [17]; read-out: pGI50 (converted)): 6.17 µM
- CC50 (KM12 [17]; [19]): > 100 µM
- TGI (KM12 [17]; read-out: pTGI (converted)): 4.79 µM
